Measurements published in patent publication US12065427B2, “Heterocyclic compounds capable of activating STING” (BOEHRINGER INGELHEIM INTERNATIONAL GMBH, priority 2021, dated 2024).
Values after ≈ are worked out from the molar mass of the structure shown.

Key:
[1] = tested on: Human STING (hSTING, residues 155-341); assay: Interaction with hSTING as determined by Differential Scanning Fluorimetry (DSF); assay type: binding; conditions: 100 μM test compounds, 5 μM target protein
Outline: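 Thermal shift of hSTING (residues 155-341, 5 μM) with test compounds at 100 μM in 20 mM Tris, 150 mM NaCl, pH 7.5, using 5× SYPRO Orange. Ramped 25 to 95 °C at 0.5 °C per cycle (15 s/cycle) by real-time PCR fluorescence. Tm from duplicate melting curves, averaged.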

STING HAQ-variant = molecular target: T1, STING HAQ-variant (Homo sapiens, UniProt Q86WV6, G230A/H232R/R293Q/R71H); assay: IRF-inducible SEAP reporter assay in THP1-Blue ISG cells, STING HAQ-variant; assay type: cell-based; conditions: STING HAQ-variant (parental or re-introduced), 24 hours incubation
T1 construct: parental THP1-Blue™ ISG cell lines (which express endogenously HAQ); host or cells: THP1-Blue ISG (parental, endogenous HAQ) or STING-KO clone re-transduced with HAQ (MSCV-ires-GFP-Blasti)
T1 sequence (Q86WV6 whole entry R71H/G230A/H232R/R293Q): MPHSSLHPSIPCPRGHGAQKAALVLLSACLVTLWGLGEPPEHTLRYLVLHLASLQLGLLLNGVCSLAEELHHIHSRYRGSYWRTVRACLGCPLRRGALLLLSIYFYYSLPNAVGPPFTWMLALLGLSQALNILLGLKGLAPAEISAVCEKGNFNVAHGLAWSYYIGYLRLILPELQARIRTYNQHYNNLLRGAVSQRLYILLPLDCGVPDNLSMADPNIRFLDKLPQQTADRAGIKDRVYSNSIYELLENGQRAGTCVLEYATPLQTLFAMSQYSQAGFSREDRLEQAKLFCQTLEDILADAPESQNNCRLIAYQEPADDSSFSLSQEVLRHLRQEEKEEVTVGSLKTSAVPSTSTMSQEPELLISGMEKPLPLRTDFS
Outline: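 THP1-Blue ISG cells expressing STING HAQ, either endogenously (parental) or re-introduced after CRISPR knockout, were seeded at 10000 cells/well. They received 8-point compound dilutions (0.5% DMSO final) for 24 hours at 37° C. IRF-driven SEAP was read with Quanti-Blue at OD 620 nm after 30 minutes, and EC50 came from four-parameter fits.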

[2] = Solubility measurements (HTS) at pH 6.8; assay type: physicochemical; conditions: kinetic from dmso stock; aqueous McIlvaine buffer pH 6.8, 24 h at room temperature, from 10 mM DMSO stock; read-out: Soblubility
Method: Aqueous solubilities were determined from 10 mM stock solutions of the compounds in DMSO diluted to a final concentration of 250 μM with aqueous McIlvaine buffer at pH 6.8, or with acetonitrile/water (1:1) as a reference. Samples were shaken for 24 h at room temperature in 96-well plates (Whatman Uniplate® 96 wells, 750 μL, polypropylene, round bottom). The plate was then centrifuged at 3,000 rpm for 2 min. 250 μL of each sample were transferred to a Millipore MultiScreenHTS filter plate with a polycarbonate membrane, pore size 0.45 μm. Filtrates were collected by centrifugation at 3,000 rpm for 2 min. The dissolved concentrations were determined by UPLC/UV (Ultra-Performance Liquid Chromatography/ultraviolet) on a Waters ACQUITY UPLC® SQD system equipped with a Waters ACQUITY UPLC® BEH 2.1×50 mm C18 column, particle size 1.7 μm, using a short gradient with water/0.1% formic acid as solvent A and acetonitrile/0.1% formic acid as solvent B (5 to 95% B with 1.7 min total cycle time). Compounds signals were measured with a photodiode array UV detector operated at 254 nm. Solubilities were determined with a one point calibration by comparing peak areas relative to the reference standard using Waters Empower software.

in vitro = conditions: human, Caco-2, pH 7.4
Method: Cellular Permeability Measurements
Caco-2 cells were obtained from Leibniz Institute DSMZ-German Collection of Microorganisms and Cell Cultures (Braunschweig, Germany) and cultured in DMEM (Dulbecco's modified Eagle medium) containing (in final concentrations) 10% FCS (fetal calf serum), 1% NEAA (non-essential amino acids), 2 mM Glutamin, 100 U/mL Penicillin and 100 μg/mL Streptomycin. Caco-2 cells were seeded either onto 24-well Transwell inserts (Corning, #3379) for bidirectional permeability assays at a density of 160,000 cells/cm^2 and cultured for 3 weeks, with media change on every second day.
For bidirectional permeability assays 10 mM DMSO stock solutions were diluted in transport buffer (final concentrations: 128.13 mM NaCl, 5.36 mM KCl, 1 mM MgSO4, 1.8 mM CaCl2, 4.17 mM NaHCO3, 1.19 mM Na2HPO4, 0.41 mM NaH2PO4, 15 mM 2-[4-(2-hydroxyethyl)piperazin-1-yl]ethanesulfonic acid (HEPES), 20 mM glucose, pH 7.4) containing 0.25% bovine serum albumin to a final concentration of 10 μM of the test compounds and added to the apical or basal compartment. Cells were incubated with the compounds for up to 2 h. Samples from the opposite compartment were taken at different timepoints.
Compound concentrations in the compartments were quantified using a RapidFire-based high-throughput HPLC/MS/MS system (high performance liquid chromatography/mass spectrometry; Bio-Cius) that was customized to a fully automated and flexible platform, termed RIAS. In this modified setup, the sample was aspirated by a vacuum pump into a 10 μL sample loop for 250 ms and flushed onto a C4 cartridge (3.8 μL bed volume; Bio-Cius) with the aqueous mobile phase (99.9% water, 0.09% formic acid, and 0.01% TFA; flow rate 1.5 mL/min). Prior to bioanalysis samples were spiked with internal standard solution and diluted with acetonitrile (ACN) for protein precipitation. Measurement was operated in multiplereaction monitoring (MRM) mode. Quantification was performed using external calibration. A solid-phase extraction step retained the analyte for 3000 ms while interfering matrix (e.g., buffer components) was removed. With a simple step gradient, the analyte was back-eluted from the cartridge for 3,000 ms with the organic mobile phase (99.9% acetonitrile/methanol [1:1, v:v], 0.09% formic acid, and 0.01% TFA) and flushed into the mass spectrometer at a flow rate of 1.25 mL/min. Afterwards, the cartridge was re-equilibrated with the aqueous mobile phase for 500 ms (flow rate 1.5 mL/min).
Apparent permeability coefficients in the apical to basal direction (Papp,AB) and in the basal to apical direction (Papp,BA) and efflux ratios were calculated as follows: Papp,AB=QAB/(C0·s·t) Papp,BA=QBA/(C0·s·t) Efflux ratio=Papp,BA/Papp,AB
where Q is the amount of compound recovered in the receiver compartment after the incubation time t, C0 the initial compound concentration given to the donor compartment, and s the surface area of the Transwell inserts. […] In addition, transepithelial electrical resistance (TEER) values are measured for each plate before the permeability assay, and total recovery in donor and receiver compartments was determined for each compound.

STING H232R-variant = molecular target: T2, STING H232R-variant (Homo sapiens, UniProt Q86WV6, H232R); assay: IRF-inducible SEAP reporter assay in THP1-Blue ISG cells, STING H232R-variant; assay type: cell-based; conditions: STING H232R-variant (WT), 24 hours incubation
T2 construct: expressed in transfected cells; host or cells: THP1-Blue ISG hSTING KO clone, retroviral MSCV-ires-GFP-Blasti
T2 sequence (Q86WV6 whole entry H232R): as the sequence (Q86WV6 whole entry R71H/G230A/H232R/R293Q) above, with H71R, A230G, Q293R counted along it
Text: (§1) In Vitro Cytokine Induction Measured Via Activation of an Interferon Regulatory Factor Inducible Reporter Gene
(§2) Activation of the STING protein expressed in cell lines results in an increase of interferon production. By the stable integration of an interferon regulatory factor (IRF)-inducible SEAP gene (secreted embryonic alkaline phosphatase) reporter construct the functional interferon signaling pathway can be monitored. Using Invivogen's THP1-Blue™ ISG colorimetric enzyme assay and a suitable optical density (OD) reader the activity of SEAP can be detected and quantified. This technique could be used to characterize pharmacological modification of the STING pathway.
(§3) Several single nucleotide polymorphisms have been identified in the human STING gene. To determine the activity of the above described compounds, THP1-Blue™ ISG reporter cell lines expressing the different human STING variants have been generated. To do so, the endogenous human STING was first deleted using the CRISPR/CAS9 system: THP1-Blue ISG cells were electroporated with ALL-IN-ONE CRISPR plasmids targeting the STING gene (purchased from Sigma encoding the gRNA and GFP as a reporter gene for successful transduction). GFP positive cells then were sorted 24 h post transfection and expanded. Cells were then dispersed in semisolid methocel medium to allow single cell clone isolations. Clones were then screened for cGAMP responsiveness using the Quanti-Blue™ reporter assay. Non-responsive clones were subsequently analysed for STING loss by western blotting and sequencing of the STING locus.
(§4) For the overexpression of the human STING variants, a confirmed THP1-Blue™ ISG hSTING KO clone was transduced with individual retroviral plasmids (MSCV-ires-GFP-Blasti) encoding the allelic variants of hSTING (WT (H232R), HAQ, R232H, AQ and R293Q). Transduced cells were sorted for different levels of GFP fluorescence and STING allele expression was analysed by western blot.
(§5) Measurements of SEAP activity were performed in THP1-Blue™ ISG cells stably expressing the different human STING isoforms and the IRF-inducible SEAP reporter construct. Cells were cultivated in RPMI1640 medium with 10% fetal calf serum, 50 μg/ml Penicillin-Streptomycin, 100 μg/ml Zeocin, and 100 μg/ml Normocin in a 37°, 95% humidity and 5% CO2 incubator.
(§6) In preparation for the assay, the cells were distributed into the assay plates with a density of 10000 cells/15 μL per well. Compounds were prepared by an 8 point serial dilution in 50% aqueous DMSO and a final dilution step into medium to ensure a final DMSO concentration of 0.5% in the assay. 5 μL of diluted compounds were added to the plates, followed by a 24 hours incubation at 37° C.
(§7) At the day of the assay, 75 μl per well of Quanti-Blue™ reagent was added to all wells of the plate and the plate was incubated another 30 minutes at 37° C. The OD at 620 nm was measured on the EnVision reader (PerkinElmer).
(§8) EC50 values and Hill slopes were derived from 8-point four parametric non-linear curve fittings with the Megalab software (Boehringer Ingelheim) using the OD at 620 nm.
(§9) Data of EC50 values can be found in tables 2a-2e.
Data of EC50 values on STING H232R-variant can be found in table 2b: […]

STING R232H-variant = molecular target: T3, STING R232H-variant (Homo sapiens, UniProt Q86WV6); assay: IRF-inducible SEAP reporter assay in THP1-Blue ISG cells, STING R232H-variant; assay type: cell-based; conditions: 24 hours incubation
T3 construct: expressed in transfected cells; host or cells: THP1-Blue ISG hSTING KO clone, retroviral MSCV-ires-GFP-Blasti
T3 sequence (Q86WV6 whole entry, stated change not applied): as the sequence (Q86WV6 whole entry R71H/G230A/H232R/R293Q) above, with H71R, A230G, R232H, Q293R counted along it
Text: as §1, §2, §3, §4, §5, §6, §7, §8, §9
Data of EC50 values on STING R232H-variant can be found in table 2c: […]

STING R293Q-variant = molecular target: T4, STING R293Q-variant (Homo sapiens, UniProt Q86WV6, H232R/R293Q); assay: IRF-inducible SEAP reporter assay in THP1-Blue ISG cells, STING R293Q-variant; assay type: cell-based; conditions: 24 hours incubation
T4 construct: expressed in transfected cells; host or cells: THP1-Blue ISG hSTING KO clone, retroviral MSCV-ires-GFP-Blasti
T4 sequence (Q86WV6 whole entry H232R/R293Q): as the sequence (Q86WV6 whole entry R71H/G230A/H232R/R293Q) above, with H71R, A230G counted along it
Text: as §1, §2, §3, §4, §5, §6, §7, §8, §9
Data of EC50 values on STING R293Q-variant can be found in table 2d: […]

STING AQ-variant = molecular target: T5, STING AQ-variant (Homo sapiens, UniProt Q86WV6, G230A/H232R/R293Q); assay: IRF-inducible SEAP reporter assay in THP1-Blue ISG cells, STING AQ-variant; assay type: cell-based; conditions: 24 hours incubation
T5 construct: expressed in transfected cells; host or cells: THP1-Blue ISG hSTING KO clone, retroviral MSCV-ires-GFP-Blasti
T5 sequence (Q86WV6 whole entry G230A/H232R/R293Q): as the sequence (Q86WV6 whole entry R71H/G230A/H232R/R293Q) above, with H71R counted along it
Text: as §1, §2, §3, §4, §5, §6, §7, §8, §9
Data of EC50 values on STING AQ-variant can be found in table 2e: […]

Row | EC50 (STING HAQ-variant) [nM] | solubility kinetic at 24 h [2] [µg/mL] | Papp A→B at 10 μM (in vitro) [×10⁻⁶ cm/s] | efflux ratio at 10 μM (in vitro) | EC50 (STING H232R-variant) [nM] | EC50 (STING R232H-variant) [nM] | EC50 (STING R293Q-variant) [nM] | EC50 (STING AQ-variant) [nM] | SMILES | thermal shift (ΔTm) [1] [K]
1 | 600 | 67 (≈ 135 µM) |  |  |  |  |  |  | Cc1c(CO)ccc2c(-c3cccc4nn(C)cc34)nn(-c3ccc(N4CC5C(C4)C5C(=O)O)nc3)c12 (stereo not shown) [compound 71, 3-{5-[6-(hydroxymethyl)-2′,7-dimethyl-1H,2′H-[3,4′-biindazol]-1-yl]pyri-din-2-yl}-3-azabicy-clo[3.1.0]hexane-6-car-boxylic acid] | 29
2 | 6800 | 84 (≈ 170 µM) |  |  |  |  |  |  | Cc1cccc2c(-c3cccc4nn(C)cc34)nn(-c3ccc(N4CCN(CC(=O)O)C(=O)C4)nc3)c12 [compound 58, 2-[4-(5-{2′,7-dimethyl-1H,2′H-[3,4′-biindazol]-1-yl}pyridin-2-yl)-2-oxopi-perazin-1-yl]acetic acid] | 23
3 | 100 |  | 9 | 4.8 | 30 | 50 | 100 | 100 | Cc1c(CO)ccc2c(-c3cccc4nn(C)cc34)nn(-c3ccc(N4CCC(S(C)(=O)=O)CC4)nc3)c12 [compound 75, {1-[6-(4-methanesul-fonylpiperidin-1-yl)pyridin-3-yl]-2′,7-dimethyl-1H,2′H-[3,4′-biindazol]-6-yl}meth-anol] | 26

Second part, the compound before the results:

Row | SMILES | EC50 (STING HAQ-variant) [nM] | solubility kinetic at 24 h [2] [µg/mL] | Papp A→B at 10 μM (in vitro) [×10⁻⁶ cm/s] | efflux ratio at 10 μM (in vitro) | EC50 (STING H232R-variant) [nM] | EC50 (STING R232H-variant) [nM] | EC50 (STING R293Q-variant) [nM] | EC50 (STING AQ-variant) [nM] | thermal shift (ΔTm) [1] [K]
4 | Cc1cc(C)c2c(c1)c(-c1cccc3nn(C)cc13)nn2-c1ccc(N2CCC(C(=O)O)CC2)nc1 [Example #70, 1-(5-{2′,5,7-trimethyl-1H,2′H-[3,4′-biindazol]-1-yl}pyridin-2-yl)piperidine-4-carboxylic acid] | 16100 | 74 (≈ 154 µM) | 18 | 1.2 |  |  |  |  | 
5 | Cc1c(-c2cnn(C)c2)ccc2c(-c3cccc4nn(C)cc34)nn(-c3ccc(N4CC5C(C4)C5C(=O)O)nc3)c12 (stereo not shown) [Example #28, 3-{5-[2′,7-dimethyl-6-(1-methyl-1H-pyrazol-4-yl)-1H,2′H-[3,4′-biindazol]-1-yl]pyridin-2-yl}-3-azabicy-clo[3.1.0]hexane-6-carbox-ylic acid] | 80 | 87 (≈ 160 µM) |  |  |  |  |  |  | 27
6 | Cc1cccc2c(-c3cccc4nn(C)cc34)nn(-c3ccc(N4CCN(C(N)=O)CC4)nc3)c12 [Example #7, 4-(5-{2′,7-dimethyl-1H,2′H-[3,4′-biindazol]-1-yl}pyri-din-2-yl)piperazine-1-car-boxamide] | 800 |  | 28 | 0.6 | 200 | 200 | 700 | 600 | 22
7 | Cc1cccc2c(-c3cccc4nn(C)cc34)nn(-c3ccc(N4CCC(c5nn[nH]n5)CC4)nc3)c12 [Example #19, 2′,7-dimethyl-1-{6-[4-(2H-1,2,3,4-tetrazol-5-yl)piperi-din-1-yl]pyridin-3-yl}-1H,2′H-3,4′-biindazole] | 6500 | 51 (≈ 104 µM) |  |  |  |  |  |  | 21
8 | Cc1cc2c(-c3nn(-c4ccc(N5CCC(C(=O)O)CC5)nc4)c4c(C)cccc34)cccc2cn1 [Example #61, 1-{5-[7-methyl-3-(3-methylisoquinolin-5-yl)-1H-indazol-1-yl]pyridin-2-yl}piperidine-4-carboxylic acid] | 3000 |  | 10 | 1.1 | 2900 | 2900 | 2200 | 3000 | 16
9 | Cc1cccc2c(-c3cccc4nn(C)cc34)nn(-c3ccc(N4CCC5(CCC(=O)N5)CC4)nc3)c12 [Example #2, 8-(5-{2′,7-dimethyl-1H,2′H-[3,4′-biindazol]-1-yl}pyri-din-2-yl)-1,8-dia-zaspiro[4.5]decan-2-one] | 600 |  | 20 | 0.6 | 90 | 50 | 400 | 200 | 22
10 | COC(=O)C1C2CN(c3ccc(-n4nc(-c5cccc6nn(C)cc56)c5cccc(C)c54)cn3)CC21 (stereo not shown) [Example #1, Methyl 3-(5-(2′,7-dimethyl-1H,2′H-[3,4′-biindazol]-1-yl)pyridin-2-yl)-3-azabicyclo[3.1.0]hexane-6-carboxylate] | 700 |  |  | 0.4 | 200 | 200 | 400 | 200 | 21
